Source: US11492366B2, “Platinum compounds for binding guanine quadruplexes” (QUEEN'S UNIVERSITY AT KINGSTON, priority 2017, dated 2022)

How the values were obtained:
FTBAT = experiment: FRET melting assay, FTBAT; assay type: binding; settings: DNA quadruplex; 0.2 μM binder, 0.1 μM oligonucleotide, K+ buffer; dichloride salts
Description: (§1) All samples tested are guanine quadruplexes except FdxT, which is in duplex form. Binding of G4s by the specified binders of Formula (1) was shown.
(§2) 96-Well plate FRET melting assays were adapted from literature protocols (A. De Rache, J.-L. Mergny, Biochimie (2015),115: 194-202) and conducted using a Strategene Mx3005P real-time PCR apparatus. G4 oligonucleotides labelled with 5′-FAM (6-carboxyfluorescein) and 3′-TAMRA (6-carboxytetramethylrhodamine) fluorophores were folded by rapid annealing in buffer (2 min. at 90° C. followed by cooling in ice). The FAM fluorescent tag was excited at 492 nm and its emission followed at 516 nm while the plates were incubated at 25° C. (5 min.) and then heated (1° C./min) to 95° C. Each condition was repeated in duplicate, and every experiment was repeated at least three times for reproducibility. Final oligonucleotide concentration ([…]) and buffer conditions (10 mM lithium cacodylate, pH 7.2 with either 10 mM potassium chloride/90 mM lithium chloride or 100 mM sodium chloride for DNA, or with 1 mM potassium chloride and 99 mM lithium chloride for RNA) were kept constant. T1/2 values were obtained as the temperature at which the normalized fluorescence emission is 0.5, with ΔT1/2=T1/2 (G4+ binder) — T1/2 (G4). […]

Fc-mycT = experiment: FRET melting assay, Fc-mycT; assay type: binding; settings: DNA quadruplex; 0.2 μM binder, 0.1 μM oligonucleotide, K+ buffer; dichloride salts
Description: as §1, §2

FdxT = experiment: FRET melting assay, FdxT duplex; assay type: binding; settings: DNA duplex; 0.2 μM binder, 0.1 μM oligonucleotide, K+ buffer; dichloride salts
Description: as §1, §2

FBom17T = experiment: FRET melting assay, FBom17T; assay type: binding; settings: DNA quadruplex; 0.2 μM binder, 0.1 μM oligonucleotide, K+ buffer; dichloride salts
Description: as §1, §2

F21RT = experiment: FRET melting assay, F21RT; assay type: binding; settings: RNA quadruplex; 0.2 μM binder, 0.1 μM oligonucleotide, K+ buffer (1 mM KCl/99 mM LiCl for RNA); dichloride salts
Description: as §1, §2

F21T = experiment: FRET melting assay, F21T; assay type: binding; settings: DNA quadruplex; 0.2 μM binder, 0.1 μM oligonucleotide, K+ buffer; dichloride salts
Description: as §1, §2

F21CTAT = experiment: FRET melting assay, F21CTAT; assay type: binding; settings: DNA quadruplex; 0.2 μM binder, 0.1 μM oligonucleotide, K+ buffer; dichloride salts
Description: as §1, §2

F25cebT = experiment: FRET melting assay, F25cebT; assay type: binding; settings: DNA quadruplex; 0.2 μM binder, 0.1 μM oligonucleotide, K+ buffer; dichloride salts
Description: as §1, §2

22AG [1] = experiment: FID titration (thiazole orange displacement) and data fitting; assay type: binding, human; settings: K buffer, error 3σ × standard deviation
Description: Specifically, such titrations involve the addition of a binder to a thiazole orange (TO):22AG complex (0.25 or 0.5 μM DNA) in potassium buffer (10 mM lithium cacodylate buffer (pH 7.2) and 100 mM KCl). FIG. 4A provides an example of the blank-, baseline-, and volume-corrected fluorescence spectra obtained from the titration of Pt(2)2 with TO-22AG. […] Previous experiments indicate that the fluorophore binds to the quadruplex in a 1:1 TO:22AG stoichiometry, thus potentially leaving a second binding site unoccupied on the other terminal guanine tetrad of 22AG. […]
FID assays were adapted from literature protocols (Monchaud et al., Biochimie (2008) 90: 1207-23). […] In order to derive binding constants from FID data, fluorescence titrations monitoring the binding of TO to the quadruplex examined were first performed in triplicate. A TO-G4 binding constant was determined by data fitting using the HypSpec2014 software (see below). […]
Experiments were performed in a 1.5 mL cell at 25° C. […] Following a 3 minute equilibrium period after each addition, the fluorescence emission spectrum was recorded (λex=501 nm, λem=510-750 nm, bandwidth 5 nm, step size 1 nm). […]
A blank sample containing only buffer was measured in a 1.5 mL fluorescence cuvette to serve as reference. […]

guanine quadruplexes = experiment: FRET melting assays, overall statements; assay type: binding; settings: 0.2 μM binder
Description: as §1, §2

22AG [2] = experiment: Circular dichroism titration, 22AG; assay type: binding, human; settings: for Binder-induced conformational change of 22AG from hybrid to antiparallel (CD): K+ buffer (100 mM KCl), 0-5 equivalents binder
Description: Referring to FIGS. 3A and 3B, representative CD spectra from titrations where binders are added to A) 22AG and B) c-myc in potassium buffer (10 mM lithium cacodylate buffer (pH 7.2) and 100 mM KCl) are provided. Specifically, these graphs show changes in Δ A upon addition of Pt(11)2 (0-5 equivalents). Such experiments were performed for all novel binders of Formula (1) described in Table 1 with the exception of Pt(6)2.
The latter phenomenon is of particular interest in the case of the polymorphic quadruplex 22AG, which can adopt parallel, hybrid, and/or antiparallel topologies. […] The interactions of all novel binders of Formula (1) except Pt(6)2 (see Table 1) with 22AG and c-myc have been confirmed through similar CD titrations. In FIG. 3A, spectral changes such as the appearance of a peak at […] are consistent with a conformational change from a hybrid to an antiparallel 22AG quadruplex (Randazzo et al, Top. Curr. Chem. (2013) 330: 67-86).
500 μL Aliquots of 22AG and c-myc were folded at 3 μM by rapid annealing (2 min. at 90° C. followed by cooling in ice) in 10 mM lithium cacodylate (pH 7.2) and 100 mM potassium chloride. G4 binders were prepared in the same buffer at 37.5 or 75 μM, such that 0.5 equiv. binder was equivalent to 10 or 20 μL additions. Spectra at 0, 0.5, 1.0, 1.5, 2.0, 3.0, and 5.0 equivalents of binder added to G4 were acquired after 15 minutes of equilibration. Each spectrum was collected using a Jasco J-815 spectrometer with the following experimental parameters: wavelength range: 200-500 nm, data pitch: 1 nm, D.I.T.: 0.5 s, scan speed: 100 nm/min, accumulations: 3. Acquired data was then blank-corrected and baseline-corrected. Curves were smoothed by taking the average of the ellipticity data from the preceding 4 wavelengths as well as the current wavelength.

SMILES | Average Binder-Induced Stabilization of Melting Temperature (ΔT1/2), FTBAT (FTBAT) [°C] | Average Binder-Induced Stabilization of Melting Temperature (ΔT1/2), Fc-mycT (Fc-mycT) [°C] | Average Binder-Induced Stabilization of Melting Temperature (ΔT1/2), FdxT (FdxT) [°C] | Average Binder-Induced Stabilization of Melting Temperature (ΔT1/2), FBom17T (FBom17T) [°C] | Average Binder-Induced Stabilization of Melting Temperature (ΔT1/2), F21RT (F21RT) [°C] | Average Binder-Induced Stabilization of Melting Temperature (ΔT1/2), F21T (F21T) [°C] | Average Binder-Induced Stabilization of Melting Temperature (ΔT1/2), F21CTAT (F21CTAT) [°C] | Average Binder-Induced Stabilization of Melting Temperature (ΔT1/2), F25cebT (F25cebT) [°C] | Average Log(β), 2:1 binder:G4 complex (22AG [1]) [M^−2] | Stabilization / binding of guanine quadruplexes (in words) (guanine quadruplexes) | Binder-induced conformational change of 22AG from hybrid to antiparallel (CD) (22AG [2]) | Preferentially bound topology of human telomeric 22AG (22AG [2]; in potassium)
C[n+]1cc(NC(=O)c2ccc3ccc4ccc(C(=O)Nc5cc6ccccc6[n+](C)c5)nc4c3n2)cc2ccccc21 [Phen-DC3, reference compound] | 6.4 | 11.3 | 0.6 | 3.2 | 13.3 | 16.4 | 11.7 | >8.5 | 16.0 ± 1.3 |  |  | 
C#Cc1ccc2[n+](c1)[Pt-2]1([n+]3cc(C#C)ccc3-c3n4ccccc4n[n+]31)[n+]1nc3ccccn3c1-2 [Pt(6)2] | 1.8 | 0.2 | 0.4 | 0.7 | 4.5 | 0.9 | 1.9 | 0.9 |  | binding was minimal |  | 
CC(C)(C)OC(=O)Nc1ccc2n[n+]3c(n2c1)-c1cccc[n+]1[Pt-2]31[n+]2ccccc2-c2n3cc(NC(=O)OC(C)(C)C)ccc3n[n+]21 [Pt(17)2] |  |  |  |  |  |  |  |  |  |  | no conformational changes are observed | preferentially bind to a hybrid topology
CC(=O)NCC(=O)Nc1ccc2n[n+]3c(n2c1)-c1cccc[n+]1[Pt-2]31[n+]2ccccc2-c2n3cc(NC(=O)CNC(C)=O)ccc3n[n+]21 [Pt(18)2] |  |  |  |  |  |  |  |  |  |  | to a lesser extent | 
CC(=O)NCC(=O)NCC(=O)Nc1ccc2n[n+]3c(n2c1)-c1cccc[n+]1[Pt-2]31[n+]2ccccc2-c2n3cc(NC(=O)CNC(=O)CNC(C)=O)ccc3n[n+]21 [Pt(19)2] |  |  |  |  |  |  |  |  |  |  | to a lesser extent | 
